The first assay deals with SARS-CoV-2 Papain like protease (PLpro) (Severe acute respiratory syndrome coronavirus 2 (2019-nCoV) (SARS-CoV-2), UniProt P0DTD1). Put plainly: Papain Like Protease (PLpro) biochemical assay with profluorogenic substrate Z-RLRGG-AMC. The note with it: IC50 (μM), SARS-CoV-2 PLpro 6.25 nM, 25 μM Z-RLRGG-AMC substrate, 60 minute reaction.
As to `Cc1cc(COCc2cscn2)ccc1C(=O)N[C@H](C)c1cc(-c2cnn(C)c2)nc2ccccc12` [Example 274, (R)-2-methyl-N-(1-(2-(1-methyl-1H-pyrazol-4-yl)quinolin-4-yl)ethyl)-4-((thiazol-4-ylmethoxy)methyl)benzamide], it took 0.002 µM to reach half-maximal inhibition (IC50).

Staying with this assay, now noted: SARS-CoV-2 PLpro 6.25 nM, 25 μM Z-RLRGG-AMC substrate, 60 minute reaction; read-out: IC50.
Regarding `Cc1ccc(N2CCN(C)CC2)cc1C(=O)NC1(c2cc(-c3cc(C(=O)N(C)C)c[nH]3)cc3ccccc23)CC1` [Example 277, N,N-dimethyl-5-(4-(1-(2-methyl-5-(4-methylpiperazin-1-yl)benzamido)cyclopropyl)naphthalen-2-yl)-1H-pyrrole-3-carboxamide], the concentration for half-maximal inhibition (IC50) was 0.002 µM.

Turning to `C[C@@H](NC(=O)c1ccccc1CCC(=O)NNC(=O)/C=C/C(N)=O)c1cc(-c2cnn(C)c2)nc2ccccc12` [Example 224, (R,E)-2-(3-(2-(4-amino-4-oxobut-2-enoyl)hydrazineyl)-3-oxopropyl)-N-(1-(2-(1-methyl-1H-pyrazol-4-yl)quinolin-4-yl)ethyl)benzamide], the IC50 came to 0.006 µM.

On to `Cc1ccccc1C(=O)NC(C)c1cc(-c2cnn3cccnc23)nc2ccccc12` (stereo not drawn) [Example 131, 2-methyl-N-{1-[2-(pyrazolo [1,5-a]pyrimidin-3-yl)quinolin-4-yl]ethyl}benzamide], for which the IC50 amounted to 2.91 µM. Still for that read-out and setting: then `Cc1cc(CNC(=O)c2cscn2)ccc1C(=O)NC(C)c1cc(-c2cnn(C)c2)cc2ccccc12` (stereo not drawn) [Example 54, N-(3-methyl-4-((1-(3-(1-methyl-1H-pyrazol-4-yl)naphthalen-1-yl)ethyl)carbamoyl)benzyl)thiazole-4-carboxamide], with 0.028 µM.

Regarding `Cc1ccc(N2CC3CC2CN3C)cc1C(=O)N[C@H](C)c1cc(-c2cnn(C)c2)nc2ccccc12` (stereo partly drawn) [Example 256, 2-methyl-N-((R)-1-(2-(1-methyl-1H-pyrazol-4-yl)quinolin-4-yl)ethyl)-5-(5-methyl-2,5-diazabicyclo[2.2.1]heptan-2-yl)benzamide], the IC50 came to 0.015 µM.

For the origin of these results see patent US20240245673A1, “Papain-like protease (PLpro) inhibitors” (Pfizer Inc., priority 2022, published 2024).
